Results reported in patent US20240018501A1, “HIGHER PERFORMANCE PROTEASES FOR SCARLESS PEPTIDE TAG REMOVAL” (priority 2017, published 2024).

Test system: CylA
Test: CylA proteolytic cleavage of leader peptides (MALDI-TOF MS)
Assay type: biochemical, Enterococcus faecalis
Procedure: Targeted peptides were dissolved in H2O to a final concentration of 3 mg/mL. To a 85 μL solution of peptides, 10 μL of 500 mM HEPES buffer (pH 7.5) was added followed by 5 μL of 0.5 mg/mL AspN protease (for modified CylLL and CylLS peptides), 0.1 mg/mL CylA protease (for modified and unmodified CylLL, CylLS peptides, and modified HalA2-GDVQAE peptide) or 0.1 mg/mL LicP protease (for LicA2). For cleavage tests of the engineered GDVQAE peptides, CylA was added to a final concentration of 0.01 mg/mL, whereas the peptide was added to a concentration of 0.3 mg/mL with 50 mM HEPES buffer (pH 7.5). The protease cleavage reaction mixtures were kept at 25° C. for 1 to 48 h. Osmotic pressure was adjusted with NaCl solution with a final concentration of 150 mM. The digested peptide mixture was directly used for antimicrobial and hemolytic assay. For the kinetic analysis of CylA and its mutant proteins, His6-CylA-27-412 and His6-CylA-27-412-E95A proteins were added to a final concentration of 500 ng/mL and 2.5 μg/mL (22 nM and 110 nM), respectively, with modified CylLS supplied at a concentration of 0.3 mg/mL (36 μM). The reactions were allowed to proceed at room temperature and were stopped by 1% TFA at different time points for LC/MS analysis. Halα and Halβ were obtained by factor Xa cleavage of modified HalA1Xa and HalA2 Xa peptides using the procedure of Y. Shi, et al. J. Am. Chem. Soc. […]

His6-NisA-GDVQAE: linear NisA with engineered GDVQAE recognition sequence
leader peptide removal / cleavage by CylA: successfully removed
